In experiment [1] the test system is tyrosine aminotransferase (TAT). Briefly: tyrosine aminotransferase (TAT) induction in HTC cells. It is filed as cell-based, rat. To be noted: Rattus norvegicus, Table 1, 24 or 48 hours, from 10^-6 M down, relative to dexamethasone = 1, read-out: Efficacy (DEX = 1) TAT. Here is the method:
In this example, tyrosine aminotransferase (TAT) activity was determined by a spectrophotometric assay. This enzyme catalyzes the conversion of tyrosine to p-hydroxyphenylpyruvate. This example is a standard in vitro test for glucocorticoid activity.
Addition of base caused the conversion of p-hydroxyphenylpyruvate to p-hydroxybenzaldehyde, which was quantitatively measured by absorbance at 331 nm. HTC cells, the target cells for the compound tested were grown in DMEM+10% FCS. Subconfluent cell cultures were incubated with test compounds in 6 well Costar dishes for 24 or 48 hours. The cells were incubated in either serum-free DMEM or DMEM containing 10% FCS previously filtered over activated charcoal. The cells were harvested in PBS using a rubber policeman, then washed once in PBS by centrifugation and resuspended in a 0.3 ml lysis buffer of 10 mM Tris, 10 mM EDTA and 0.25M sucrose at pH 7.4. The cells were then lysed by three cycles of freeze-thawing using dry ice and a 37° C. waterbath and the cells debris was pelleted by centrifugation for 2 min at 12,000 9 in an Eppendorf centrifuge.
The supernatant was used for a protein determination using either E+K stain or BioRad protein assay kit and TAT activity. 0.1 ml TAT buffer having 50 mM KH2 PO4, 1 mM EDTA, 0.1 mM Dithiothereitol (DTT), and 5 mg/ml BSA at pH 7.6 and 0.1 ml cell extract were mixed in glass tubes. A prewarmed mixture of 200 parts of a 2.3 mg/ml tyrosine solution in 0.05M phosphate buffer, 100 parts 0.125M KH2 PO4, 10 parts of a 0.92 mg/ml and ketoglutarate solution and 1 part of a 0.04 mg/ml pyridoxalphosphate solution had been previously made up. […] of the prewarmed mixture was added to each tube and allowed to react at 37° C. for 15 min. The addition of 0.1 ml 7N […] stopped the reaction. The mixture was then immediately vortexed.
Aldehyde formation was allowed to proceed at 37° C. for 30 min. The amound of aldehyde formed was determined by UV spectroscopic means. Absorbance was read at 331 nm using a solution composed of 0.1 ml TAT buffer, 0.1 ml lysis buffer, 0.7 ml reaction mixture and 0.1 ml 7N KOH as a blank. Optical Density values are linearily corrected for protein content.
As the absolute amount of enzyme induction varies between experiments, results are expressed as percent of the maximal induction obtained with dexamethasone, which was run as a standard in each assay.
In this series, compounds were assayed from 10^-6 M down. Results are expressed in the TAT column of tables 1, and 2 as the induction ability of a compound as compared to dexamethasone; a compound may either be a partial inducer or a superinducer.

For another experiment, the target named is T1, glucocorticoid receptor (Rattus norvegicus, UniProt P06536).
T1 construct: endogenous in cells; host or cells: HTC (rat hepatoma) cells, 100,000 x g cytosol
T1 sequence (P06536 1-795): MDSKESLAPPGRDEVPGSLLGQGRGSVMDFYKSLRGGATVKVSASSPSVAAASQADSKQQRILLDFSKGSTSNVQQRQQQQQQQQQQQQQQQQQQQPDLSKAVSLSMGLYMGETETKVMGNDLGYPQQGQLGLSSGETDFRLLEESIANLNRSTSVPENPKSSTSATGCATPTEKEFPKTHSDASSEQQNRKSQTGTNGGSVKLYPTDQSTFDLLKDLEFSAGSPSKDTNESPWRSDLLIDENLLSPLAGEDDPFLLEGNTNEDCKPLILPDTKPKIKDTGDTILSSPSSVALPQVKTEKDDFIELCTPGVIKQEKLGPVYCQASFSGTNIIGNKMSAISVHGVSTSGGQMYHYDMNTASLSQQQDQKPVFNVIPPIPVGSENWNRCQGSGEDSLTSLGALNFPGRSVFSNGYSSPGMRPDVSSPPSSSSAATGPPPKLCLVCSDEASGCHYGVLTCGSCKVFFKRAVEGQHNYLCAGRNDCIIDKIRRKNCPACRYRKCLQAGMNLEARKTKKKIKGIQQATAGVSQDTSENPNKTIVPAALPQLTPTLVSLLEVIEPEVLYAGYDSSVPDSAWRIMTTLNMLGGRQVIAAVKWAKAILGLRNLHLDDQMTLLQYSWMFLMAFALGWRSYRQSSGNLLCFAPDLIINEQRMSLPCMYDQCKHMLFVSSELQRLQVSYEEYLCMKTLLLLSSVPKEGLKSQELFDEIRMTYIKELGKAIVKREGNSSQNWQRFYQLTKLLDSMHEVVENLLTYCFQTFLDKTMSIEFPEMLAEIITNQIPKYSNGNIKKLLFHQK
Put plainly: competition for 3H-dexamethasone binding sites in HTC cytosol (glucocorticoid receptor affinity). Conditions: Table 1; displacement of 25 nM 3H-DEX, HTC (rat hepatoma) cytosol, 3 hours on ice. Here is the method:
LE II (mouse lung capillary endothelial) or HTC (rat hepatoma) cells were grown in Dulbecco's modified Eagle's (DMEM) medium plus 10% fetal calf serum (FCS), in 150 cm^2 T-flasks. Approximately 20 flasks of LE II cells or 10 flasks of HTC cells were needed for a 60-80 sample assay.
Cell monolayers were washed 3 times with Phosphate Buffered Saline (PBS) and harvested by scraping with a rubber policeman into an ice-cold sonication buffer of 0.25M sucrose; 10 mM Tris-HCl, pH 7.4; 5 mM ethylenediaminetetraacetic acid (EDTA); 5 mM dithiothereitol; and 10 mM sodium molybdate. All subsequent steps were performed at 4° C. The cells were pooled into a final volume of 8-12 mls, broken by sonication for 45 seconds with the microtip of a Branson sonifier at setting #3 and the residue was then centrifuged at 100,000 X g for 30 minutes with a Beckman L8-50, Ti50 rotor, at 40,000 rpm. […] Incubations were peformed in a final volume of 1 ml in 1.5 ml Eppendorf centrifuge tubes for 3 hours on ice.
Fine Sephadex G-50 gel was swollen and equilibrated against column buffer of 100 mM Tris-HCl, pH 7.8; and 3 mM CaCl2. Columns were poured to a final packed volume of 4.5 ml in 5 ml plastic disposable pipets.
The packed columns were then drained of buffer and the 1 ml incubated samples were applied to each. The samples were washed into the columns with 0.5 ml of column buffer, and the exclusion volumes containing the protein peaks were eluted with another 1 ml of column buffer and collected. Aliquots of 750 μl of Biorad protein reagent were diluted 1:5 in H2 O. OD630 nm reading were compared with those obtained for a bovine serum albumin standard curve.

With `CCC(=O)O[C@]1(C(=O)OC)[C@@H](C)C[C@H]2[C@@H]3CCC4=CC(=O)C=C[C@]4(C)[C@@]3(F)[C@@H](O)C[C@@]21C` [compound 1], the Emax in experiment [1] worked out at 100%. The IC50 at glucocorticoid receptor stood at 5 nM.

Turning to `CCC(=O)O[C@]1(C(=O)OC)[C@@H](C)C[C@H]2[C@@H]3CC(F)C4=C(F)C(=O)C=C[C@]4(C)[C@@]3(F)[C@@H](O)C[C@@]21C` (stereo partly drawn) [compound 3], in experiment [1], the Emax amounted to 150%. The IC50 on glucocorticoid receptor is 15 nM.

In the case of `CCCC(=O)O[C@]1(C(=O)OC)[C@@H](C)C[C@H]2[C@@H]3CC(F)C4=CC(=O)C=C[C@]4(C)[C@@]3(F)[C@@H](O)C[C@@]21C` (stereo partly drawn) [compound 4], in experiment [1], the Emax was 100%. The same compound registered an IC50 on glucocorticoid receptor of 0.25 nM.

With `CCC(=O)O[C@]1(C(=O)OC)[C@H](C)C[C@H]2[C@@H]3CC(F)C4=CC(=O)C=C[C@]4(C)[C@@]3(F)[C@@H](O)C[C@@]21C` (stereo partly drawn) [compound 7], the Emax in experiment [1] came out at 200%. The IC50 at glucocorticoid receptor is 4 nM.

As to `CCC(=O)O[C@]1(C(=O)OC)[C@H](C)C[C@H]2[C@@H]3CC(F)C4=C(F)C(=O)C=C[C@]4(C)[C@@]3(F)[C@@H](O)C[C@@]21C` (stereo partly drawn) [compound 8], the Emax in experiment [1] turned out to be 100%. This compound also had an IC50 at glucocorticoid receptor of 0.25 nM.

As for `CCCC(=O)O[C@]1(C(=O)OC)[C@H](C)C[C@H]2[C@@H]3CC(F)C4=CC(=O)C=C[C@]4(C)[C@@]3(F)[C@@H](O)C[C@@]21C` (stereo partly drawn) [compound 9], the Emax in experiment [1] stood at 90%. At glucocorticoid receptor, this compound had an IC50 of 0.025 nM.

These data come from US4599331A, “Etianic acids as antiangiogenics” (Syntex (U.S.A.) Inc., priority 1984, dated 1986).
